Measurements published in patent US11116771B2, “G protein-coupled receptor (GPCR) modulation by imipridones” (Oncoceutics, Inc., priority 2016, dated 2021).
Values after ≈ are worked out from the molar mass of the structure shown. “Also recorded” adds a separate entry of the source. Where two headings read alike, the source gives them in different places.

Assays:
human cancer cells = assay: Viability of human cancer cells at 72 hours post-treatment; type: cell-based; settings: relative to the potency of ONC201; viability of human cancer cells at 72 hours post-treatment
MV411 AML cells = assay: Cell viability, MV411 AML cells; type: cell-based
MOLM14 AML cells = assay: Cell viability, MOLM14 AML cells; type: cell-based
K562 (CML) = assay: Cell viability, K562; type: cell-based; settings: Homo sapiens, 5 nM-5 μM, 72 h, n=3
[1] = test system: MHH-ES-1 (Ewing's sarcoma); assay: Cell viability, MHH-ES-1; type: cell-based; settings: Homo sapiens, 5 nM-5 μM, 72 h, n=3
[2] = test system: Ewing's sarcoma cell lines; assay: Anti-cancer efficacy in Ewing's sarcoma cell lines; type: cell-based; settings: 16 Ewing's sarcoma cell lines (FIG. 20)
[3] = test system: NCI60 cancer cell line panel; assay: NCI60 cancer cell line panel; type: cell-based; settings: NCI60 panel (FIG. 16)
[4] = Rat non-GLP oral single dose study; type: in vivo
[5] = test system: DRD2 (short and long isoforms); assay: β-arrestin recruitment GPCR reporter assay, DRD2; type: cell-based
[6] = test system: Staphylococcus aureus ATCC 29213; assay: MIC by micro-broth dilution, S. aureus ATCC 29213; type: cell-based; settings: ATCC29213; for MIC90: read-out: MIC90; for MIC99: read-out: MIC99
[7] = test system: Staphylococcus aureus ATCC 33591; assay: MIC by micro-broth dilution, S. aureus ATCC 33591; type: cell-based; settings: ATCC33591; for MIC90: read-out: MIC90; for MIC99: read-out: MIC99
[8] = test system: Staphylococcus aureus ATCC 700699; assay: MIC by micro-broth dilution, S. aureus ATCC 700699; type: cell-based; settings: Staphylococcus aureus, ATCC700699, ATCC 700699 (48 hours); for MIC90: read-out: MIC90; for MIC99: read-out: MIC99
HFF (Normal Fibroblast) = assay: Cell viability, HFF normal fibroblasts
HL60 = assay: Cell viability, HL60 AML cell line; type: cell-based; settings: Homo sapiens, HL-60, 72 h
HCT116 cells = assay: Anticancer efficacy in HCT116 cells; type: cell-based, human
[9] = test system: MRC5 lung fibroblasts and Hs27a bone marrow cells; assay: Cell viability of normal cells treated with ONC212; type: cell-based; settings: 5 nM-5 μM, 72 h (FIG. 29B)
leukemia cell lines = assay: Anti-cancer efficacy in leukemia cell lines; type: cell-based; settings: 55 leukemia cell lines regardless of subtype (FIG. 26)
[10] = test system: human colon cancer xenograft; assay: Human colon cancer xenograft in mice; type: in vivo; settings: single dose, oral or intraperitoneal (FIG. 24)
MV411 AML xenograft = MV411 AML xenograft model; type: in vivo, athymic nude mice
[11] = Mouse tolerability (non-GLP oral single dose / MTD study); type: in vivo
Experimental: ONC212 25 mg/kg represents NOAEL in mouse and rat non-GLP oral single dose studies which is also the efficacious dose in mouse xenograft studies. […].
Dual targeting of DRD2/3 and GPR132/91 represents a novel strategy for anti-cancer efficacy without toxicity. […] […]. […] […].

GPR132 = target: T1, GPR132 (Homo sapiens, UniProt Q9UNW8); assay: β-arrestin recruitment GPCR reporter assay, GPR132; type: cell-based
T1 sequence (Q9UNW8 1-380): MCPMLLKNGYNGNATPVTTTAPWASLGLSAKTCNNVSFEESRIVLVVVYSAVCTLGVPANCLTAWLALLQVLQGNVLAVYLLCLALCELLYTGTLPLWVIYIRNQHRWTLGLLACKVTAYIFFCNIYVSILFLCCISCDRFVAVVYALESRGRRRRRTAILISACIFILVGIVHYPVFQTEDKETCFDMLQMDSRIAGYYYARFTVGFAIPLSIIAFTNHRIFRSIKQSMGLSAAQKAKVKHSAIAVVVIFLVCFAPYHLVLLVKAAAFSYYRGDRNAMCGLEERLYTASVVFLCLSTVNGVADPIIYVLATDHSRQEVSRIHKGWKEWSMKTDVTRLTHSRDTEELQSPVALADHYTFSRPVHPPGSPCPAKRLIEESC

[12] = test system: human fetal lung fibroblast (MRC-5) cells; settings: MRC5; nanomolar concentrations (FIG. 22)
[13] = wild type Staphylococcus aureus (ATCC 29213), read-out: MIC
[14] = Staphylococcus aureus, ATCC 29213, 24 hours
[15] = Staphylococcus aureus, ATCC 29213, 24 hours, read-out: MIC95
[16] = Staphylococcus aureus, ATCC 29213, 24 hours, read-out: MIC, Visual
[17] = Staphylococcus aureus (ATCC 33591), methicillin resistant, read-out: MIC
[18] = Staphylococcus aureus, ATCC 33591, 24 hours
[19] = Staphylococcus aureus, ATCC 33591, 24 hours, read-out: MIC95
[20] = Staphylococcus aureus, ATCC 33591, 24 hours, read-out: MIC, Visual

Compound | anti-cancer efficacy across tumor types [3] | GPCR activity, DRD2 [5] | MIC [6, 13] [µg/mL] | MIC90 [6, 14] [µg/mL] | MIC [6, 15] [µg/mL] | MIC99 [6, 14] [µg/mL] | MIC [6, 16] [µg/mL] | MIC [7, 17] [µg/mL] | MIC90 [7, 18] [µg/mL] | MIC [7, 19] [µg/mL] | MIC99 [7, 18] [µg/mL] | MIC [7, 20] [µg/mL] | MIC90 [8] [µg/mL] | MIC ([8]; read-out: MIC95) [µg/mL] | MIC99 [8] [µg/mL] | MIC ([8]; read-out: MIC, Visual) [µg/mL] | also measured
O=C1C2=C(CCN(Cc3ccccc3)C2)N2CCN=C2N1Cc1ccc(F)cc1F [ONC206] | demonstrated anti-cancer efficacy | improved DRD2 antagonism | 6.25 (≈ 15.3 µM) | 6.25 (≈ 15.3 µM) | 6.25 (≈ 15.3 µM) | 6.25 (≈ 15.3 µM) | 6.25 (≈ 15.3 µM) | 12.5 (≈ 30.6 µM) | 12.5 (≈ 30.6 µM) | 25 (≈ 61.2 µM) | > 100 | 12.5 (≈ 30.6 µM) | 12.5 (≈ 30.6 µM) | 12.5 (≈ 30.6 µM) | 25 (≈ 61.2 µM) | 12.5 (≈ 30.6 µM) | Relative Potency* (human cancer cells): A (A Indicates a potency increase of >2-fold of ONC201); IC50 (MV411 AML cells; Homo sapiens, MV4-11, MV411, 5 nM-5 μM, 72 h, n=3): 200 nM; fold improvement compared to ONC201 in in vitro potency (MV411 AML cells; cell lines of Table 12): up to 20 fold; IC50 (MOLM14 AML cells; Homo sapiens, MOLM-14, 5 nM-5 μM, 72 h, n=3): 270 nM; IC50 (K562 (CML)): 220 nM; IC50 [1]: 610 nM; anti-cancer efficacy [2]: nanomolar range in 14 out of 16; also recorded: superior efficacy compared to ONC201 in all cell lines; NOAEL ([4]; rat non-GLP oral single dose study): 125 mg/kg; IC50 (HFF (Normal Fibroblast); Homo sapiens, Fibroblast, 72 h): > 5000 nM; in vitro toxicity to normal cells (HFF (Normal Fibroblast); Table 12): no in vitro toxicity to normal cells at therapeutic doses
O=C1C2=C(CCN(Cc3ccccc3)C2)N2CCN=C2N1Cc1ccc(C(F)(F)F)cc1 [ONC212] | demonstrated anti-cancer efficacy | does not engage DRD2 | 3.13 (≈ 7.11 µM) | 3.13 (≈ 7.11 µM) | 3.13 (≈ 7.11 µM) | 3.13 (≈ 7.11 µM) | 3.12 (≈ 7.09 µM) | 3.13 (≈ 7.11 µM) | 3.13 (≈ 7.11 µM) | 6.25 (≈ 14.2 µM) | 100 (≈ 227 µM) | 3.12 (≈ 7.09 µM) | 6.25 (≈ 14.2 µM) | 12.5 (≈ 28.4 µM) | 12.5 (≈ 28.4 µM) | 12.5 (≈ 28.4 µM) | fold more potent compared to ONC201 (MV411 AML cells; AML cell lines in vitro (Table 11)): up to 400 fold; efficacy in AML cells resistant to standard of care cytarabine (MV411 AML cells; MV411, 5 nM-5 μM, 24 h (FIG. 29A)): efficacious; cell viability after 8 hr exposure (MV411 AML cells; MV411, ONC212 at 250 nM, viability determined at 96 h (FIG. 29C)): robust reduction in cell viability; IC50 (HL60): 210 nM; cell viability after 8 hr exposure (MOLM14 AML cells; ONC212 at 250 nM, viability determined at 96 h (FIG. 29C)): robust reduction in cell viability; cell death in cancer cells (HCT116 cells; HCT116, nanomolar concentrations (FIG. 22)): induced cell death; IC50 (HCT116 cells; Homo sapiens, HCT-116, HCT116 cells): 10 nM; toxicity to normal cells [9]: non-toxic to normal cells at efficacious concentrations; anti-cancer efficacy (leukemia cell lines): nanomolar range; tumor volume compared to vehicle-treated control [10]: significant reduction of tumor volume; body weight loss or gross observations (MV411 AML xenograft; all ONC212 regimens (FIG. 30C)): None of these ONC212 administration regimens were associated with body weight loss; leukemia xenograft tumor growth (MV411 AML xenograft; biweekly dosing with 25 mg/kg, oral (FIG. 30B)): not efficacious; leukemia xenograft tumor growth (MV411 AML xenograft; oral weekly administration, ONC212 50 mg/kg, ONC201 at similar doses (FIG. 30A)): significantly reduced; leukemia xenograft tumor growth (MV411 AML xenograft; weekly/biweekly dosing with 5 mg/kg, oral (FIG. 30B)): not efficacious; NOAEL ([4]; rat, in vivo, po): 25 mg/kg; NOAEL ([11]; in vivo, mouse, non-GLP oral single dose study / MTD study): 25 mg/kg; well tolerated dose ([11]; mice): ≥ 225 mg/kg; GPCR activity, GPR132 (GPR132): highly selective agonist; cell death in normal cells [12]: not normal cells
